# Results from patent publication US20230340012A1, “NATURAL AND SYNTHETIC COMPOUNDS FOR TREATING CANCER AND OTHER DISEASES” (PACIFIC ARROW LIMITED, priority 2009, published 2023).
# Tested on: cancer cells
# Assay: MTT cytotoxic assay of esterification products (Cytotoxicity activity)
# Format: cell-based, human
# In short: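 Cytotoxicity was read by MTT (Carmichael method, modified), with cells seeded 24 h ahead of treatment. Sixteen human cancer lines spanning bone, lung, bladder, ovary, colon, pancreas, prostate, skin, mouth, kidney, breast, liver, brain, leukemia and cervix were used. Test samples were acyl chloride esterification products of triterpenes, as mixtures or HPLC-purified compounds.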
# [1] = MTT cytotoxic assay, isolated esterification products of E4A
# [2] = E4A esterified with Crotonoyl chloride (Cro = Crotonoyl), compounds isolated with HPLC
# [3] = E4A esterified with 2-propenoyl chloride (Ppe = Propenoyl), compounds isolated with HPLC
# [4] = E4A esterified with Propionyl chloride (Ppi = Propionyl), compounds isolated with HPLC
# [5] = E4A esterified with benzoyl chloride (Ben = benzoyl), compounds isolated with HPLC
# [6] = esterification products of core compound E4A with (2E)-2-pentenoyl chloride (2pe = 2-pentenoyl)
# [7] = esterification products of core compound E4A with Butyryl chloride (But = Butyryl)
# [8] = esterification products of core compound E4A with Decanoyl chloride (Dec = Decanoyl)
# [9] = esterification products of core compound E4A with Isobutyryl chloride (Iso = Isobutyryl)
# [10] = esterification products of core compound E4A with Myristoyl chloride (Myr = Myristoyl)
# [11] = esterification products of core compound E4A with Octanoyl chloride (Oct = Octanoyl)
# [12] = esterification products isolated with HPLC, graded strong / moderate / weak
# [13] = E4A esterified with Cinnamoyl chloride (Cin = Cinnamoyl), compounds isolated with HPLC
structure (smiles),measurement,setting,value
C=CCCC(=O)OCC1(C)C(OC(=O)CCC=C)CCC2(C)C1CCC1(C)C2CC=C2C3CC(C)(C)C(OC(=O)CCC=C)C(O)C3(COC(=O)CCC=C)C(O)CC21C (stereo not shown) [Compound C11],Cytotoxicity activity,[1],weak
CC=C(C)C(=O)OCC1(C)C(OC(=O)C(C)=CC)CCC2(C)C1CCC1(C)C2CC=C2C3CC(C)(C)C(OC(=O)C(C)=CC)C(O)C3(COC(=O)C(C)=CC)C(OC(=O)C(C)=CC)CC21C (stereo not shown) [Compound A17],Cytotoxicity activity,[1],weak
C=CCCC(=O)OCC1(C)C(O)CCC2(C)C1CCC1(C)C2CC=C2C3CC(C)(C)C(O)C(OC(=O)CCC=C)C3(COC(=O)CCC=C)C(O)CC21C (stereo not shown) [Compound C5],Cytotoxicity activity,[1],moderate
CC=CC(=O)OCC1(C)C(O)CCC2(C)C1CCC1(C)C2CC=C2C3CC(C)(C)C(OC(=O)C=CC)C(O)C3(COC(=O)C=CC)C(OC(=O)C=CC)CC21C (stereo not shown) [Compound I13],Cytotoxicity activity,[2],weak
CC=CC(=O)OCC1(C)C(OC(=O)C=CC)CCC2(C)C1CCC1(C)C2CC=C2C3CC(C)(C)C(O)C(OC(=O)C=CC)C3(COC(=O)C=CC)C(O)CC21C (stereo not shown) [Compound I9],Cytotoxicity activity,[2],weak
CC(C)=CC(=O)OCC1(C)C(O)CCC2(C)C1CCC1(C)C2CC=C2C3CC(C)(C)C(OC(=O)C=C(C)C)C(O)C3(COC(=O)C=C(C)C)C(O)CC21C (stereo not shown) [Compound B4],Cytotoxicity activity,[1],moderate
CC1(C)CC2C3=CCC4C5(C)CCC(OC(=O)c6ccccc6)C(C)(COC(=O)c6ccccc6)C5CCC4(C)C3(C)CC(OC(=O)c3ccccc3)C2(COC(=O)c2ccccc2)C(OC(=O)c2ccccc2)C1O (stereo not shown) [Compound K18],Cytotoxicity activity,[3],weak
same,Cytotoxicity activity,[4],weak
same,Cytotoxicity activity,[5],weak
same,Cytotoxicity activity,[6],weak
same,Cytotoxicity activity,[7],weak
same,Cytotoxicity activity,[8],weak
same,Cytotoxicity activity,[9],weak
same,Cytotoxicity activity,[10],weak
same,Cytotoxicity activity,[11],weak
CC=C(C)C(=O)OCC1(C)C(O)CCC2(C)C1CCC1(C)C2CC=C2C3CC(C)(C)C(O)C(OC(=O)CCCCC)C3(COC(=O)CCCCC)C(O)CC21C (stereo not shown) [Tig—Hex—3],Cytotoxicity activity,[12],moderate
CC=C(C)C(=O)OCC1(C)C(OC(=O)C(CC)CC)CCC2(C)C1CCC1(C)C2CC=C2C3CC(C)(C)C(O)C(OC(=O)C(CC)CC)C3(COC(=O)C(C)=CC)C(O)CC21C (stereo not shown) [Tig—R—Eth—6],Cytotoxicity activity,[12],weak
CC=C(C)C(=O)OCC1(C)C(OC(=O)C=C(C)C)CCC2(C)C1CCC1(C)C2CC=C2C3CC(C)(C)C(OC(=O)C=C(C)C)C(O)C3(COC(=O)C(C)=CC)C(O)CC21C (stereo not shown) [Tig—R—Sen—5],Cytotoxicity activity,[12],weak
CCC(CC)C(=O)OCC1(C)C(OC(=O)C(CC)CC)CCC2(C)C1CCC1(C)C2CC=C2C3CC(C)(C)C(O)C(OC(=O)C(CC)CC)C3(COC(=O)C(CC)CC)C(O)CC21C (stereo not shown) [Compound E9],Cytotoxicity activity,[1],weak
CC=C(C)C(=O)OCC1(C)C(O)CCC2(C)C1CCC1(C)C2CC=C2C3CC(C)(C)C(OC(=O)C(C)=CC)C(OC(=O)C(C)=CC)C3(COC(=O)C(C)=CC)C(OC(=O)C(C)=CC)CC21C (stereo not shown) [Compound A16],Cytotoxicity activity,[1],weak
CC=C(C)C(=O)OCC1(C)C(OC(C)=O)CCC2(C)C1CCC1(C)C2CC=C2C3CC(C)(C)C(O)C(OC(C)=O)C3(COC(=O)C(C)=CC)C(O)CC21C (stereo not shown) [Tig—R—Acy—6],Cytotoxicity activity,[12],weak
CC1(C)CC2C3=CCC4C5(C)CCC(OC(=O)c6ccccc6)C(C)(CO)C5CCC4(C)C3(C)CC(O)C2(COC(=O)c2ccccc2)C(O)C1O (stereo not shown) [Compound K27],Cytotoxicity activity,[3],moderate
same,Cytotoxicity activity,[4],moderate
same,Cytotoxicity activity,[5],moderate
same,Cytotoxicity activity,[6],moderate
same,Cytotoxicity activity,[7],moderate
same,Cytotoxicity activity,[8],moderate
same,Cytotoxicity activity,[9],moderate
same,Cytotoxicity activity,[10],moderate
same,Cytotoxicity activity,[11],moderate
CC1(C)CC2C3=CCC4C5(C)CCC(O)C(C)(CO)C5CCC4(C)C3(C)CC(O)C2(CO)C(OC(=O)C=Cc2ccccc2)C1OC(=O)C=Cc1ccccc1 (stereo not shown) [Compound J24],Cytotoxicity activity,[13],moderate
CC1(C)CC2C3=CCC4C5(C)CCC(O)C(C)(COC(=O)c6ccccc6)C5CCC4(C)C3(C)CC(OC(=O)c3ccccc3)C2(COC(=O)c2ccccc2)C(OC(=O)c2ccccc2)C1OC(=O)c1ccccc1 (stereo not shown) [Compound K16],Cytotoxicity activity,[3],weak
same,Cytotoxicity activity,[4],weak
same,Cytotoxicity activity,[5],weak
same,Cytotoxicity activity,[6],weak
same,Cytotoxicity activity,[7],weak
same,Cytotoxicity activity,[8],weak
same,Cytotoxicity activity,[9],weak
same,Cytotoxicity activity,[10],weak
same,Cytotoxicity activity,[11],weak
CC=C(C)C(=O)OCC1(C)C(O)CCC2(C)C1CCC1(C)C2CC=C2C3CC(C)(C)C(O)C(OC(=O)C=C(C)C)C3(COC(=O)C=C(C)C)C(O)CC21C (stereo not shown) [Tig—Sen—3],Cytotoxicity activity,esterification products of E4A—Tig—N with senecioyl chloride,moderate
CC(C)=CC(=O)OCC1(C)C(O)CCC2(C)C1CCC1(C)C2CC=C2C3CC(C)(C)C(O)C(OC(=O)C=C(C)C)C3(COC(=O)C=C(C)C)C(O)CC21C (stereo not shown) [Compound B5],Cytotoxicity activity,[1],moderate
CC=C(C)C(=O)OCC1(C)C(O)CCC2(C)C1CCC1(C)C2CC=C2C3CC(C)(C)C(O)C(OC(C)=O)C3(COC(C)=O)C(O)CC21C (stereo not shown) [Tig—Acy—3],Cytotoxicity activity,[12],moderate
CCCCCC(=O)OCC1(C)C(O)CCC2(C)C1CCC1(C)C2CC=C2C3CC(C)(C)C(O)C(OC(=O)CCCCC)C3(CO)C(O)CC21C (stereo not shown) [Compound D30],Cytotoxicity activity,[1],moderate
CC(C)=CC(=O)OCC12C(O)CC3(C)C(=CCC4C5(C)CCC(O)C(C)(CO)C5CCC43C)C1CC(C)(C)C(O)C2OC(=O)C=C(C)C (stereo not shown) [Compound B26],Cytotoxicity activity,[1],moderate
CCC(CC)C(=O)OCC1(C)C(O)CCC2(C)C1CCC1(C)C2CC=C2C3CC(C)(C)C(O)C(O)C3(CO)C(O)CC21C (stereo not shown) [Compound E1],Cytotoxicity activity,[1],moderate
CCCCCC(=O)OC1C(OC(=O)CCCCC)C2(CO)C(O)CC3(C)C(=CCC4C5(C)CCC(OC(=O)CCCCC)C(C)(CO)C5CCC43C)C2CC1(C)C (stereo not shown) [Compound D23],Cytotoxicity activity,[1],moderate
CC=C(C)C(=O)OCC1(C)C(O)CCC2(C)C1CCC1(C)C2CC=C2C3CC(C)(C)C(OC(=O)C(C)=CC)C(O)C3(COC(=O)C(C)=CC)C(OC(=O)C(C)=CC)CC21C (stereo not shown) [Compound A13],Cytotoxicity activity,[1],weak
CCCCCC(=O)OC1C(OC(=O)CCCCC)C2(CO)C(O)CC3(C)C(=CCC4C5(C)CCC(O)C(C)(CO)C5CCC43C)C2CC1(C)C (stereo not shown) [Compound D24],Cytotoxicity activity,[1],moderate
C=CCCC(=O)OC1C(O)C2(CO)C(O)CC3(C)C(=CCC4C5(C)CCC(O)C(C)(COC(=O)C(C)=CC)C5CCC43C)C2CC1(C)C (stereo not shown) [Tig—Pen—5],Cytotoxicity activity,[12],moderate
CC=CC(=O)OCC1(C)C(O)CCC2(C)C1CCC1(C)C2CC=C2C3CC(C)(C)C(O)C(O)C3(COC(=O)C=CC)C(O)CC21C (stereo not shown) [Compound I3],Cytotoxicity activity,[2],strong
CC=C(C)C(=O)OCC1(C)C(O)CCC2(C)C1CCC1(C)C2CC=C2C3CC(C)(C)C(OC(C)=O)C(O)C3(COC(=O)C(C)=CC)C(O)CC21C (stereo not shown) [Tig—R—Acy—2],Cytotoxicity activity,[12],moderate
CC=C(C)C(=O)OCC1(C)C(OC(=O)C(C)=CC)CCC2(C)C1CCC1(C)C2CC=C2C3CC(C)(C)C(O)C(O)C3(COC(=O)C(C)=CC)C(OC(=O)C(C)=CC)CC21C (stereo not shown) [Compound A10],Cytotoxicity activity,[1],weak
CC=C(C)C(=O)OCC1(C)C(OC(C)=O)CCC2(C)C1CCC1(C)C2CC=C2C3CC(C)(C)C(O)C(O)C3(COC(=O)C(C)=CC)C(O)CC21C (stereo not shown) [Tig—R—Acy—4],Cytotoxicity activity,[12],moderate
CC(C)=CC(=O)OCC1(C)C(OC(=O)C=C(C)C)CCC2(C)C1CCC1(C)C2CC=C2C3CC(C)(C)C(O)C(OC(=O)C=C(C)C)C3(COC(=O)C=C(C)C)C(OC(=O)C=C(C)C)CC21C (stereo not shown) [Compound B18],Cytotoxicity activity,[1],weak
CC(C)=CC(=O)OC1C(OC(=O)C=C(C)C)C2(CO)C(O)CC3(C)C(=CCC4C5(C)CCC(O)C(C)(CO)C5CCC43C)C2CC1(C)C (stereo not shown) [Compound B24],Cytotoxicity activity,[1],moderate
CCC(CC)C(=O)OCC12C(O)CC3(C)C(=CCC4C5(C)CCC(O)C(C)(CO)C5CCC43C)C1CC(C)(C)C(OC(=O)C(CC)CC)C2OC(=O)C(CC)CC (stereo not shown) [Compound E20],Cytotoxicity activity,[1],moderate
CC1(C)CC2C3=CCC4C5(C)CCC(O)C(C)(CO)C5CCC4(C)C3(C)CC(O)C2(CO)C(OC(=O)c2ccccc2)C1OC(=O)c1ccccc1 (stereo not shown) [Compound K24],Cytotoxicity activity,[3],moderate
same,Cytotoxicity activity,[4],moderate
same,Cytotoxicity activity,[5],moderate
same,Cytotoxicity activity,[6],moderate
same,Cytotoxicity activity,[7],moderate
same,Cytotoxicity activity,[8],moderate
same,Cytotoxicity activity,[9],moderate
same,Cytotoxicity activity,[10],moderate
same,Cytotoxicity activity,[11],moderate
CC(C)=CC(=O)OCC1(C)C(O)CCC2(C)C1CCC1(C)C2CC=C2C3CC(C)(C)C(O)C(O)C3(CO)C(OC(=O)C=C(C)C)CC21C (stereo not shown) [Compound B32],Cytotoxicity activity,[1],moderate
CC1(C)CC2C3=CCC4C5(C)CCC(OC(=O)C=Cc6ccccc6)C(C)(COC(=O)C=Cc6ccccc6)C5CCC4(C)C3(C)CC(O)C2(CO)C(O)C1O (stereo not shown) [Compound J31],Cytotoxicity activity,[13],moderate
CC=C(C)C(=O)OCC1(C)C(O)CCC2(C)C1CCC1(C)C2CC=C2C3CC(C)(C)C(O)C(O)C3(COC(=O)C=Cc3ccccc3)C(O)CC21C (stereo not shown) [Tig—Cin—1],Cytotoxicity activity,[12],strong
CC(=O)OCC1(C)C(O)CCC2(C)C1CCC1(C)C2CC=C2C3CC(C)(C)C(O)C(OC(C)=O)C3(CO)C(O)CC21C (stereo not shown) [Compound H30],Cytotoxicity activity,"E4A esterified with Acetyl chloride (Acy = Acetyl), compounds isolated with HPLC",moderate
